In assay [1] the target is T1, flag-tagged HIF1α (AA 786-826) / His6-tagged p300 (AA 323-423) complex (Homo sapiens, UniProt Q09472).
T1 construct: His6-tagged p300 (AA 323-423); made in house; host or cells: E. coli (pETDuet vector)
The experiment in a line: HIF1α p300 displacement assay (TR FRET, +CHAPS). It is filed as binding. To be noted: read-out: IC50 (nM) (HIF1α_p300 Displacement + CHAPS). Put shortly:
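The co-expressed flag-HIF1α (786-826)/His6-p300 (323-423) complex, purified from E. coli with 0.1 mM ZnSO4, was used at 300 nM final with competitor peptides for 1 h at room temperature. Buffer was 150 mM NaCl, 20 mM HEPES pH 7.4, 7.5 mM CHAPS and 1 mM DTT. Anti-Flag-K (0.5 μM) and anti-His-D2 (4 nM) were then added for 2 h, and IC50s were fitted from the TR-FRET ratio.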

For assay [2], the system named is HRE-bla ME-180 cells. The assay can be described thus: Cell proliferation assay (viability, MTT, 1% FBS). It is filed as cell-based, human. Put shortly: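 ME-180 cells (2×10^4/well) in Opti-MEM with 1% FBS were pretreated 16 h under normoxia (21% O2), vehicle 0.5% DMSO final. Incubation then continued under normoxia or hypoxia (1% O2); viable cells quantified by MTT-type CellTiter 96 assay.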

Assay [3] has as its system HRE-bla ME-180 cells. The assay can be described thus: Reporter gene assay (HRE-bla ME-180 HIF reporter, GeneBLAzer). To be noted: for EC50: 24 hour normoxia. It is filed as cell-based, human. A digest of the protocol:
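A FRET β-lactamase readout of HIF transcription was used. After compound treatment in 0.3% DMSO/media under normoxic conditions, 20 μl of 6× LiveBLAzer-FRET B/G (CCF4-AM) substrate was added. Plates sat 3 hr at room temperature in the dark and were read at 409 Ex/460Em and 409Ex/530Em on a Synergy 2. Inhibition was compared against DMSO vehicle controls, with chetomin as positive control.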
(A reporter such as luciferase makes a cellular process visible.)

Broadly, the IC50 is the concentration at which inhibition is half-maximal. One may read the EC50 as the concentration giving half of the maximal effect.

Bridge positions count the residues as written; N and C are the ends. Square brackets hold non-standard residues; d marks the D form. Peptide text beside a SMILES is read from it. R8 = C=CCCCCCC[C@@](C)(N)C(=O)O; S5 = C=CCCC[C@](C)(N)C(=O)O; Nle = CCCC[C@H](N)C(=O)O; Abu = CC[C@H](N)C(=O)O A value given as a limit tells only on which side of the number the result lay.

As for `CCCC[C@@H]1NC(=O)[C@H](CC(C)C)NC(=O)[C@H](C(C)C)NC(=O)[C@@](C)(NC(=O)[C@H](CCC(=O)O)NC(=O)[C@H](CC(=O)O)NC(=O)[C@@H](NC(=O)[C@H](Cc2ccccc2)NC(C)=O)[C@@H](C)CC)CCCC=CCCC[C@@](C)(C(=O)N[C@@H](CC(C)C)C(=O)N[C@H](C(=O)N[C@H](C(=O)N[C@@H](CCC(=O)O)C(=O)N[C@@H](CCC(N)=O)C(=O)N[C@@H](C)C(=O)N[C@@H](CC(C)C)C(N)=O)[C@@H](C)CC)C(C)C)NC1=O` [SP-146] (Ac-FIDE[S5]VL[Nle][S5]LVIEQAL-NH2; staple 5-9), the IC50 in assay [1] is greater than 700 nM. In addition, the “Viability 1% FBS AVG (MTT V3-24 hr Normoxia) (μM)” value (“Viability 1% FBS AVG” for short) in assay [2] is reported as “++++ (≥30: ++++)”. In addition, in assay [3], the “18 h Avg % max inhibition at top conc (HIF Rptr-24 hrs normoxia) (μM)” value (“18 h Avg % max inhibition at top conc” for short) is given as “+++ (≤25 but <50: +++)” and the concentration for a half-maximal effect (EC50) is greater than 30 µM.

Regarding `CCCC[C@@H]1NC(=O)[C@H](CC(C)C)NC(=O)[C@H](CC(N)=O)NC(=O)[C@@](C)(NC(=O)[C@H](CCC(=O)O)NC(=O)[C@H](CC(=O)O)NC(=O)[C@@H](NC(=O)[C@H](Cc2ccccc2)NC(C)=O)[C@@H](C)CC)CCCC=CCCCC2(CCCC=CCCC[C@](C)(C(=O)N[C@@H](CCCC)C(=O)N[C@@H](C)C(=O)N[C@@H](CC(C)C)C(N)=O)NC(=O)[C@H]([C@@H](C)CC)NC(=O)[C@H](C(C)C)NC(=O)[C@H](CC(C)C)NC2=O)NC1=O` (some centres unmarked) [SP-208], in assay [1], the 50% inhibitory concentration (IC50) is greater than 700 nM. The “Viability 1% FBS AVG” value in assay [2] was “++ (≤5 but <15: ++)”. Further, in assay [3], the “18 h Avg % max inhibition at top conc” value was “+++ (≤25 but <50: +++)” and the half-maximal effective concentration (EC50) was in the range of 5 to 15 µM.

With `CCCC[C@H](NC(=O)[C@H](CCC(=O)O)NC(=O)[C@@H](NC(=O)[C@@H](NC(=O)[C@H](CO)NC(=O)[C@]1(C)CCCC=CCCC[C@](C)(NC(=O)[C@H](CCC(=O)O)NC(=O)[C@H](CC(=O)O)NC(=O)[C@@H](NC(=O)[C@H](Cc2ccccc2)NC(C)=O)[C@@H](C)CC)C(=O)N[C@@H](C(C)C)C(=O)N[C@@H](CC(C)C)C(=O)N[C@@H](CCCC)C(=O)N1)C(C)C)[C@@H](C)CC)C(=O)N[C@@H](C)C(=O)N[C@@H](CC(C)C)C(N)=O` [SP-144] (Ac-FIDE[S5]VL[Nle][S5]SVIE[Nle]AL-NH2; staple 5-9), the IC50 in assay [1] was in the range of 400 to 700 nM. Also, the “Viability 1% FBS AVG” value in assay [2] was “+++ (≤15 but <30: +++)”. For the same compound, in assay [3], the “18 h Avg % max inhibition at top conc” value is reported as “++++ (≥50: ++++)” and the EC50 was greater than 30 µM.

With `CCCC[C@H](NC(=O)[C@H](CCC(=O)O)NC(=O)[C@]1(C)CCCC=CCCCCCC[C@@](C)(NC(=O)[C@H](CCC(=O)O)NC(=O)[C@H](C)NC(=O)[C@@H](NC(=O)[C@H](Cc2ccccc2)NC(C)=O)[C@@H](C)CC)C(=O)N[C@@H](C(C)C)C(=O)N[C@@H](CC(C)C)C(=O)N[C@@H](CCCC)C(=O)N[C@@H](CO)C(=O)N[C@@H](CC(C)C)C(=O)N[C@@H](C(C)C)C(=O)N1)C(=O)N[C@@H](C)C(=O)N[C@@H](CC(C)C)C(N)=O` [SP-197] (Ac-FIAE[R8]VL[Nle]SLV[S5]E[Nle]AL-NH2; staple 5-12), the IC50 in assay [1] was greater than 700 nM. In assay [2], the “Viability 1% FBS AVG” value is given as “++++ (≥30: ++++)”. In addition, in assay [3], the “18 h Avg % max inhibition at top conc” value is recorded as “++++ (≥50: ++++)” and the EC50 was in the range of 5 to 15 µM.

`CCCC[C@H](NC(=O)[C@H](CCC(=O)O)NC(=O)[C@@H](NC(=O)[C@@H](NC(=O)[C@H](CC(C)C)NC(=O)[C@]1(C)CCCC=CCCC[C@](C)(NC(=O)[C@H](CCC(=O)O)NC(=O)[C@H](CC(=O)O)NC(=O)[C@H](CO)NC(=O)[C@H](Cc2ccccc2)NC(C)=O)C(=O)N[C@@H](C(C)C)C(=O)N[C@@H](CC(C)C)C(=O)N[C@@H](CCCC)C(=O)N1)C(C)C)[C@@H](C)CC)C(=O)N[C@@H](C)C(=O)N[C@@H](CC(C)C)C(N)=O` [SP-154] (Ac-FSDE[S5]VL[Nle][S5]LVIE[Nle]AL-NH2; staple 5-9): in assay [1], the IC50 fell in the range of 200 to 400 nM. Also, the “Viability 1% FBS AVG” value in assay [2] is reported as “++++ (≥30: ++++)”. For the same compound, in assay [3], the “18 h Avg % max inhibition at top conc” value is “+ (<10: +)” and the EC50 was greater than 30 µM.

`CCCC[C@H](NC(=O)[C@H](CCC(=O)O)NC(=O)[C@@H](NC(=O)[C@@H](NC(=O)[C@H](CC(C)C)NC(=O)[C@]1(C)CCCC=CCCC[C@](C)(NC(=O)[C@H](CCC(=O)O)NC(=O)[C@H](CC(=O)O)NC(=O)[C@@H](NC(=O)[C@H](Cc2ccccc2)NC(C)=O)[C@@H](C)CC)C(=O)N[C@@H](C)C(=O)N[C@@H](CC(C)C)C(=O)N[C@@H](CCCC)C(=O)N1)C(C)C)[C@@H](C)CC)C(=O)N[C@@H](C)C(=O)N[C@@H](CC(C)C)C(N)=O` [SP-138] (Ac-FIDE[S5]AL[Nle][S5]LVIE[Nle]AL-NH2; staple 5-9): the IC50 in assay [1] lay within 200 to 400 nM. For the same compound, in assay [2], the “Viability 1% FBS AVG” value was “++++ (≥30: ++++)”. In addition, in assay [3], the “18 h Avg % max inhibition at top conc” value was “+++ (≤25 but <50: +++)” and the half-maximal effective concentration (EC50) was greater than 30 µM.

In the case of `CCCC[C@H](NC(=O)[C@]1(C)CCCC=CCCC[C@](C)(NC(=O)[C@H](C)NC(=O)[C@H](Cc2ccccc2)NC(=O)[C@@H](NC(=O)[C@H](CCC(=O)O)NC(=O)[C@H](CCC(=O)O)NC(=O)[C@H](CC(=O)O)NC(=O)[C@@H](NC(=O)[C@H](Cc2ccccc2)NC(C)=O)[C@@H](C)CC)C(C)C)C(=O)N[C@@H](CC(C)C)C(=O)N[C@@H](C(C)C)C(=O)N[C@@H]([C@@H](C)CC)C(=O)N1)C(=O)N[C@@H](C)C(=O)N[C@@H](CC(C)C)C(=O)N[C@@H](CC(C)C)C(N)=O` [SP-246] (Ac-FIDEEVFA[S5]LVI[S5][Nle]ALL-NH2; staple 9-13), in assay [1], the half-maximal inhibitory concentration (IC50) is greater than 700 nM. In assay [2], the “Viability 1% FBS AVG” value is listed as “++++ (≥30: ++++)”. In addition, in assay [3], the “18 h Avg % max inhibition at top conc” value is reported as “+ (<10: +)” and the 50% effective concentration (EC50) was greater than 30 µM.

Turning to `CC[C@@H]1NC(=O)[C@H](CC(=O)O)NC(=O)[C@H](Cc2ccc(O)cc2)NC(=O)[C@@](C)(NC(=O)[C@@H](NC(=O)[C@H](CC(C)C)NC(=O)[C@H](CCC(N)=O)NC(=O)[C@@H]2CCCN2C(=O)[C@H](CC(C)C)NC(=O)[C@H](CCC(=O)O)NC(=O)[C@H](CCCCN)NC(=O)[C@@H](NC(=O)[C@H](CCCNC(=N)N)NC(=O)[C@H](CC(=O)O)NC(=O)[C@H](CC(C)C)NC(=O)CNC(=O)[C@H](CCSC)NC(=O)[C@]2(C)CCCC=CCCC[C@](C)(NC(=O)[C@H](CCSC)NC(=O)[C@H](CC(C)C)NC(=O)[C@@H](NC(=O)[C@H](CCC(=O)O)NC(=O)[C@H](CCC(=O)O)NC(=O)[C@H](CC(=O)O)NC(=O)[C@@H](NC(=O)[C@H](Cc3ccccc3)NC(C)=O)[C@@H](C)CC)C(C)C)C(=O)N[C@@H](CC(C)C)C(=O)N[C@@H](C(C)C)C(=O)N[C@@H]([C@@H](C)CC)C(=O)N2)[C@@H](C)CC)[C@@H](C)O)CCCC=CCCC[C@@](C)(C(=O)N[C@H](C(=O)N[C@@H](CC(N)=O)C(=O)N[C@@H](C)C(N)=O)C(C)C)NC1=O` [SP-321] (Ac-FIDEEVLM[S5]LVI[S5]MGLDRIKELPQLT[S5]YD[Abu][S5]VNA-NH2; staple 9-13, 27-31), in assay [1], the half-inhibitory concentration (IC50) fell in the range of 200 to 400 nM. Further, the “Viability 1% FBS AVG” value in assay [2] is on record as “++++ (≥30: ++++)”. Moreover, in assay [3], the “18 h Avg % max inhibition at top conc” value was “+++ (≤25 but <50: +++)” and the EC50 fell in the range of 15 to 30 µM.

The record behind these values is patent US20190225650A1, “PEPTIDOMIMETIC MACROCYCLES AND USE THEREOF IN REGULATING HIF1ALPHA” (AILERON THERAPEUTICS, INC., priority 2013, published 2019).
